Results reported in patent US20030220310A1, “Epoxy-steroidal aldosterone antagonist and calcium channel blocker combination therapy for treatment of congestive heart failure” (priority 2003, published 2003).
One block for each molecule: values may come before it.

Columns and labels:
[1] = Single crystal X-ray structure, unit cell parameters; format: physicochemical; conditions: for R: crystal structure determination; for Volume / ρ (calculated): unit cell; for Z / a / b / c / α / β / γ: unit cell parameter; for Isostructural to Methyl Ethyl ketone Solvate?: eplerenone crystalline solvate
Source text: Tables 8, 9 and 10 below summarize the unit cell parameters determined for Form H, Form L, and several solvated crystalline forms. […]

[2] = Thermogravimetric analysis of solvates (desolvation); format: physicochemical; conditions: eplerenone crystalline solvate; extrapolated from final solvent weight loss step, TGA, 10° C./minute, nitrogen purge
Method: Thermogravimetric analysis of solvates was performed using a TA Instruments TGA 2950 thermogravimetric analyzer. Samples were placed in an unsealed aluminum pan under nitrogen purge. Starting temperature was 25° C. with the temperature increased at a rate of about 10° C./minute.

[3] = test system: myocardial fibrosis in animal models; conditions: cited from earlier work

Structure (SMILES): COC(=O)[C@@H]1CC2=CC(=O)CC[C@]2(C)C2=CC[C@@]3(C)C(CCC34CCC(=O)O4)C21 (stereo partly drawn) [9,11 olefin]
R [1]: 0.0764
Volume [1]: 2069.3 Å
ρ (calculated) [1]: 1.279 g/mL
Z [1]: 4
a [1]: 20.90 Å Å
b [1]: 15.74 Å Å
c [1]: 6.29 Å Å
α [1]: 90°
β [1]: 90°
γ [1]: 90°

Structure (SMILES): CC(C)=O [Acetone]
Desolvation Temperature [2]: 117 °C
Isostructural to Methyl Ethyl ketone Solvate? [1]: Yes

Structure (SMILES): CCCCOC(C)=O [Butyl Acetate]
Desolvation Temperature [2]: 108 °C
Isostructural to Methyl Ethyl ketone Solvate? [1]: Yes

Structure (SMILES): ClC(Cl)Cl [Chloroform]
Desolvation Temperature [2]: 125 °C
Isostructural to Methyl Ethyl ketone Solvate? [1]: Yes

Structure (SMILES): CCC(C)=O [Methyl Ethyl Ketone]
Desolvation Temperature [2]: 89 °C

Structure (SMILES): C1CCOC1 [Tetrahydrofuran]
Desolvation Temperature [2]: 136 °C
Isostructural to Methyl Ethyl ketone Solvate? [1]: Yes

Structure (SMILES): Cc1ccccc1 [Toluene]
Desolvation Temperature [2]: 83 °C
Isostructural to Methyl Ethyl ketone Solvate? [1]: Yes

Structure (SMILES): COC(=O)[C@@H]1CC23O[C@@H]2C(=O)CC[C@]3(C)[C@@]23OC2C[C@@]2(C)C(CCC24CCC(=O)O4)C13 (stereo partly drawn) [diepoxide, 7-methyl hydrogen 4α,5α:9α,11α-diepoxy-17-hydroxy-3-oxo-17α-pregnane-7α,21-dicarboxylate, γ-lactone]
R [1]: 0.0762
Volume [1]: 2119.0 Å
ρ (calculated) [1]: 1.349 g/mL
Z [1]: 4
a [1]: 21.328 Å Å
b [1]: 16.16 Å Å
c [1]: 6.15 Å Å
α [1]: 90°
β [1]: 90°
γ [1]: 90°

Structure (SMILES): CC(=O)S[C@@H]1CC2=CC(=O)CC[C@]2(C)[C@H]2CC[C@@]3(C)[C@@H](CC[C@@]34CCC(=O)O4)[C@H]12 [spironolactone]
myocardial fibrosis [3]: prevents myocardial fibrosis

Structure (SMILES): CC(=O)OC(C)(C)C [t-Butyl Acetate]
Desolvation Temperature [2]: 109 °C
Isostructural to Methyl Ethyl ketone Solvate? [1]: Yes

Further lines, results first:

Isostructural to Methyl Ethyl ketone Solvate? [1]: Yes
Structure (SMILES): CC(=O)O [Acetic Acid]

Desolvation Temperature [2]: 166 °C
Isostructural to Methyl Ethyl ketone Solvate? [1]: Yes
Structure (SMILES): CCO [Ethanol]

Desolvation Temperature [2]: 122 °C
Isostructural to Methyl Ethyl ketone Solvate? [1]: Yes
Structure (SMILES): CCOC(=O)CC [Ethyl Propionate]

Desolvation Temperature [2]: 112 °C
Isostructural to Methyl Ethyl ketone Solvate? [1]: Yes
Structure (SMILES): CC(=O)OCC(C)C [Isobutyl Acetate]

Desolvation Temperature [2]: 121 °C
Isostructural to Methyl Ethyl ketone Solvate? [1]: Yes
Structure (SMILES): CC(C)O [Isopropanol]

Desolvation Temperature [2]: 103 °C
Isostructural to Methyl Ethyl ketone Solvate? [1]: Yes
Structure (SMILES): COC(C)=O [Methyl Acetate]

Desolvation Temperature [2]: 130 °C
Isostructural to Methyl Ethyl ketone Solvate? [1]: Yes
Structure (SMILES): CCCOC(C)=O [Propyl Acetate]

Desolvation Temperature [2]: 188 °C
Isostructural to Methyl Ethyl ketone Solvate? [1]: Yes
Structure (SMILES): CC(O)CO (stereo not drawn) [Propylene Glycol]

Desolvation Temperature [2]: 103 °C
Isostructural to Methyl Ethyl ketone Solvate? [1]: Yes
Structure (SMILES): CCCCO [n-Butanol]

Desolvation Temperature [2]: 116 °C
Isostructural to Methyl Ethyl ketone Solvate? [1]: Yes
Structure (SMILES): CCCCCCCCO [n-Octanol]

Isostructural to Methyl Ethyl ketone Solvate? [1]: Yes
Structure (SMILES): CCCO [n-Propanol]
